Measurements reported in PMC3815892 (Microbial biotechnology, 2012).

Target: Ar‐BVMO (Acinetobacter radioresistens, UniProt D7PBN2)
Experiment: HPLC product detection
Assay type: biochemical
Conditions: 500 uM substrate, 500 uM NADPH, 0.7 uM enzyme, 37 C, 20 min

CCc1cc(C(N)=S)ccn1 [ethionamide]
HPLC product detection (ethionamide S-oxide): confirmed the presence of ethionamide S‐oxide product
